Measured values as given in patent publication US20240165227A1, “ANTICANCER THERAPIES USING ANTI-CCR8 ANTIBODY, CHEMO AND IMMUNOTHERAPY COMBINATIONS” (Gilead Sciences, Inc., priority 2022, published 2024).

Experiments:
B16F10 (melanoma) = assay: B16F10 syngeneic mouse melanoma model, first study, tumor growth; format: in vivo; settings: single dose low dose gemcitabine 15 mg/kg and/or anti-CCR8 antibody Q3D 1 mg/kg, FIG. 3
Description: (§1) The ability of an anti-CCR8 antibody to augment tumor-specific effector T cell responses when paired with low-dose chemotherapy with or without an anti-PD-1 mAb was tested in vivo in different mouse syngeneic models, including 4T1 (breast cancer), Pan02 (pancreatic cancer), B16F10 (melanoma), LLC (lung cancer). 4T1 and Pan02 models are commonly understood to represent solid tumor models with strong immunosuppressive components. B16F10 and LLC are commonly viewed as cold tumor models.
(§2) The anti-CCR8 antibody used for the studies described herein is a mouse IgG2a isotype, and as described, e.g., by Campbell, J. R., et al. (2021). “Fc-Optimized Anti-CCR8 Antibody Depletes Regulatory T Cells in Human Tumor Models.” Cancer Res 81(11): 2983-2994. Isotype Control is a mouse IgG2a (BioXcell). Anti-PD-1 antibody is a mouse IgG1 antibody with D265A mutation.
A first study using the B16F10 model tested the relative antitumor activities of anti-CCR8 antibody and gemcitabine administrations as single agents and in combination. Following inoculation, mice were randomized and grouped (n=10 animals per group) when tumors reached 80-120 mm^3 and administered a single dose of low dose gemcitabine at 15 mg/kg (approximately 50% of most efficacious dose) and/or anti-CCR8 antibody Q3D at 1 mg/kg. A control group received an isotype control antibody. […] Tumors were collected at Day 5 post-dose. […]

[1] = test system: tumor infiltrating lymphocytes from B16F10 tumors; assay: B16F10 model, flow cytometry of tumor infiltrating lymphocytes (Treg and CD8 frequency); format: in vivo, mouse; settings: B16F10 tumors collected at Day 5 post-dose, FIG. 4B
Excerpt: FIG. 4A and FIG. 4B show bar charts illustrating tumor infiltrating lymphocytes from a syngeneic mouse melanoma model (B16F10). Mice were each administered with a single dose of a control antibody, gemcitabine (“low dose SOC chemo”) and/or an anti-CCR8 antibody, and frequencies of regulatory T-cells (Tregs; […]) or effector T-cells ([…]) were quantified. T test results are shown, wherein **** is p<0.0001, *** p<0.001, ** is p<0.01 and * is p<0.1.
A first study using the B16F10 model tested the relative antitumor activities of anti-CCR8 antibody and gemcitabine administrations as single agents and in combination. Following inoculation, mice were randomized and grouped (n=10 animals per group) when tumors reached 80-120 mm^3 and administered a single dose of low dose gemcitabine at 15 mg/kg (approximately 50% of most efficacious dose) and/or anti-CCR8 antibody Q3D at 1 mg/kg. A control group received an isotype control antibody. […] Tumors were collected at Day 5 post-dose. […] Briefly, tumors were dissociated and prepared for flow cytometry staining. Cells were stained as follows: L/D, CD45, CD3, CD4, CD8, CD25, FoxP3. Samples were acquired on flow cytometer and data generated was used to determine Treg frequency (L/D negative, CD45 positive, CD3 positive, CD4 positive, CD25 positive, FoxP3 positive) and CD8 frequency (L/D negative, CD45 positive, CD3 positive, CD8 positive).

LLC (lung cancer) [2] = assay: LLC syngeneic mouse lung model, second study (single, dual, triple combinations), tumor growth; format: in vivo; settings: docetaxel 5 mg/kg, anti-CCR8 antibody Q3D 1 mg/kg, anti-PD-1 antibody Q3D 10 mg/kg, FIG. 7, FIG. 8
Description: as §1, §2
A second study using the LLC model tested the relative antitumor activities of anti-CCR8 antibody, anti-PD-1 antibody, and low dose docetaxel as single agents, dual combinations, and a triple combination. Following inoculation, mice were randomized and grouped (n=10 animals per group) when tumors reached 80-120 mm^3 and administered a single dose of docetaxel at 5 mg/kg, and/or anti-CCR8 antibody Q3D at 1 mg/kg, and/or anti-PD-1 antibody Q3D at 10 mg/kg. A control group received an isotype control antibody. […]

LLC (lung cancer) [3] = assay: LLC syngeneic mouse lung model, first study, tumor growth; format: in vivo; settings: single dose low dose docetaxel 5 mg/kg and/or anti-CCR8 antibody Q3D 1 mg/kg, FIG. 6
Description: as §1, §2
A first study using the LLC model tested the relative antitumor activities of anti-CCR8 antibody and docetaxel administrations as single agents and in combination. Following inoculation, mice were randomized and grouped (n=8 animals per group) when tumors reached 80-120 mm^3 and administered a single dose of low dose docetaxel at 5 mg/kg (approximately 50% of most efficacious dose) and/or anti-CCR8 antibody Q3D at 1 mg/kg. A control group received an isotype control antibody.

Structure (SMILES) | tumor growth inhibition (B16F10 (melanoma)) | CD8+ T-cell infiltration in the tumors (CD8 frequency) [1] | tumor growth inhibition (LLC (lung cancer) [2]) | tumor growth inhibition (LLC (lung cancer) [3])
Nc1ccn([C@@H]2O[C@H](CO)[C@@H](O)C2(F)F)c(=O)n1 [gemcitabine] | did not result in substantial tumor growth inhibition | significant CD8+ T-cell infiltration | – | –
CC(=O)O[C@@]12CO[C@@H]1C[C@H](O)[C@@]1(C)C(=O)[C@H](O)C3=C(C)[C@@H](OC(=O)[C@H](O)[C@@H](NC(=O)OC(C)(C)C)c4ccccc4)C[C@@](O)([C@@H](OC(=O)c4ccccc4)[C@H]21)C3(C)C [docetaxel] | – | – | Partial tumor growth inhibition | did not result in substantial tumor growth inhibition
